{"source": "paper PMC11881559", "about": "(Antimicrobial Agents and Chemotherapy, 2025)", "key": {"CYP3A": {"system": "CYP3A", "settings": "in vitro CYP reaction phenotyping, preclinical; cited from earlier work"}, "[1]": {"assay": "Preclinical toxicology, NOAEL in dogs", "type": "in vivo", "settings": "from dog NOAEL, at 60 kg body weight"}, "[2]": {"settings": "dogs; preclinical animal studies; cited from earlier work"}, "Omicron": {"system": "Omicron", "settings": "in vitro, corrected by the plasma protein binding rate; cited from earlier work"}, "wild-type strain": {"system": "wild-type strain", "settings": "in vitro, corrected by the plasma protein binding rate; cited from earlier work"}, "[3]": {"assay": "Preclinical toxicology, NOAEL in rats", "type": "in vivo", "settings": "from rat NOAEL, at 60 kg body weight"}, "[4]": {"assay": "Multiple ascending dose (MAD) study, plasma PK", "settings": "for t1/2: mean ± SD"}, "[5]": {"assay": "Drug-drug interaction (DDI) study with ritonavir, plasma PK", "settings": "200 mg in combination with ritonavir vs 200 mg alone"}}, "note": "Values joined by “and” are separate entries in the source; they are usually repeats but may differ in a detail not shown here. Equal entries are not always repeated.", "data": [{"smiles": "O=C(NC1CCCC1)C(=O)[C@H](C[C@@H]1CCNC1=O)NC(=O)[C@@H]1[C@H]2CCC[C@H]2CN1C(=O)[C@@H](NC(=O)C(F)(F)F)C1CCCCC1", "note": "[RAY1216, leritrelvir]", "values": [{"measurement": "primary metabolizing enzyme", "setting": "CYP3A", "value": "CYP3A is the primary metabolizing enzyme"}, {"measurement": "human equivalent dose", "setting": "[1]", "value": "~21,000 mg/day"}, {"measurement": "no-observed-adverse-effect level (NOAEL)", "setting": "[2]", "value": 600, "unit": "mg/kg/day"}, {"measurement": "antiviral 90% effective concentration (EC90)", "setting": "Omicron", "value": 0.2097, "unit": "µg/mL"}, {"measurement": "antiviral 90% effective concentration (EC90)", "setting": "wild-type strain", "value": 0.165, "unit": "µg/mL"}, {"measurement": "human equivalent dose", "setting": "[3]", "value": "approximately 10,800 mg/day"}, {"measurement": "plasma concentration reached a steady state by", "setting": "[4]; 400 mg TID", "value": "≤ 2", "unit": "days"}, {"measurement": "AUC0-t", "setting": "[4]; 400 mg TID, Day 1, mean (%CV)", "value": "9,720 (36) ng·h/mL"}, {"measurement": "AUC0-tau", "setting": "[4]; 400 mg TID, Day 1, mean (%CV)", "value": "10,600 (30.4) ng·h/mL"}, {"measurement": "AUC0-∞", "setting": "[4]; 400 mg TID, Day 1, mean (%CV)", "value": "13,300 (32) ng·h/mL"}, {"measurement": "Cmax", "setting": "[4]; 400 mg TID, Day 1, mean (%CV)", "value": "3,450 (37.2) ng/mL"}, {"measurement": "MRT0-∞", "setting": "[4]; 400 mg TID, Day 1, mean (%CV)", "value": "3.93 (16.5) h"}, {"measurement": "t1/2", "setting": "[4]; 400 mg TID, Day 1", "value": "2.31 ± 0.465", "unit": "h"}, {"measurement": "Tmax", "setting": "[4]; 400 mg TID, Day 1, median (range)", "value": "1.5 (1.0, 2.0) h"}, {"measurement": "AUC0-t", "setting": "[4]; 400 mg TID, Day 5, mean (%CV)", "value": "15,400 (32.5) ng·h/mL"}, {"measurement": "AUC0-tau", "setting": "[4]; 400 mg TID, Day 5, mean (%CV)", "value": "10,000 (36) ng·h/mL"}, {"measurement": "AUC0-∞", "setting": "[4]; 400 mg TID, Day 5, mean (%CV)", "value": "15,500 (32.2) ng·h/mL"}, {"measurement": "Cmax", "setting": "[4]; 400 mg TID, Day 5, mean (%CV)", "value": "2,700 (32.3) ng/mL"}, {"measurement": "Cmin,ss", "setting": "[4]; 400 mg TID, Day 5, mean (%CV)", "value": "382 ng/mL and 382 (44.9) ng/mL"}, {"measurement": "MRT0-∞", "setting": "[4]; 400 mg TID, Day 5, mean (%CV)", "value": "6.23 (18.9) h"}, {"measurement": "t1/2", "setting": "[4]; 400 mg TID, Day 5", "value": "9.61 ± 2.26", "unit": "h"}, {"measurement": "Tmax", "setting": "[4]; 400 mg TID, Day 5, median (range)", "value": "1.5 (1.0, 3.0) h"}, {"measurement": "Tmax", "setting": "[4]; 400 mg TID, continuous administration", "value": 1.5, "unit": "h"}, {"measurement": "plasma concentrations reached a steady state by", "setting": "[4]; 300, 500 or 700 mg with 100 mg ritonavir BID", "value": "≤ 2", "unit": "days"}, {"measurement": "mean AUC0-t increased to", "setting": "[5]", "value": 350.07, "unit": "%"}, {"measurement": "mean AUC0-∞ increased to", "setting": "[5]", "value": 171.00, "unit": "%"}, {"measurement": "mean C12h concentration increased by", "setting": "[5]", "value": 417.3, "unit": "ng/mL"}, {"measurement": "mean Cmax increased to", "setting": "[5]", "value": 348.03, "unit": "%"}]}]}
